System: PI3Kα-WT and PI3Kα-KO MEFs
Assay: Mass spectrometry-based phosphoproteomics in MEFs
Assay type: cell-based, mouse
Settings: for differentially phosphorylated peptides/sites: PI3Kα-WT MEFs
Protocol: The inventors next investigated the impact of 1938 on cell signalling in an unbiased manner using phosphoproteomics. […] The inventors quantified 10,611 phosphosites from 3,093 proteins of which 9100, 1420 and 91 were pSer, pThr and pTyr residues, respectively (FIG. 16/Extended Data FIG. 8a). […] Compared to vehicle-treated cells, insulin treatment of PI3Kα-WT MEFs induced differential phosphorylation of 11 and 18 sites at 15 min and 4 h, respectively (FIG. 16/Extended Data FIG. 8c). […] Furthermore, approximately half of the 1938-controlled phosphosites have been previously reported (in PhosphoSitePlus) to be regulated by insulin, IGF-1, PI3K inhibition or AKT inhibition, with some linked to regulation by mTOR or PDK1 (FIG. 3gi,ii).
PI3Kα-WT and PI3Kα-KO MEFs, grown in 15 cm dishes, were serum-starved overnight in DMEM with 1% penicillin-streptomycin and stimulated by the addition of 0.05% DMSO, […] 1938 in final 0.05% DMSO or 100 nM insulin (Sigma, 15016) for 15 min or 4 h. Cells were lysed in […] urea lysis buffer [50 mM triethylammonium bicarbonate, 8 M urea, cOmplete™, EDTA-free protease inhibitor cocktail (1:50 dilution) (Roche, 11873580001), 1 PhosSTOP tablet (Roche, 4906845001), 1 mM sodium orthovanadate] and lysates sonicated until clear for ˜10 min with cooling breaks on ice. Protein concentration was measured using a BCA protein assay (Pierce #23227). 300 μg of protein was reduced with 5 mM Tris(2-carboxyethyl)phosphine hydrochloride (Sigma, C4706) at 37° C. for 20 min and alkylated using 10 mM 2-chloroacetamide (Sigma, 22790) for 20 min at room temperature in the dark. Proteins were digested with LysC for 3.5 h at 30° C. […] Fifty percent of each sample was analysed as 10 μl injections. […] Precursor ions were measured in a data-dependent mode in the orbitrap analyser at a resolution of 70,000 and a target value of 3e6 ions. The ten most intense ions from each MS1 scan were isolated, fragmented in the HCD cell, and measured in the Orbitrap at a resolution of 17,500. […]

CCN1CCN(c2ccc(Nc3cc(Nc4cccc5c4N(C(C)=O)CC5)ccn3)cc2)CC1 [Example 1938]
signalling impact in PI3Kα-KO MEFs (PI3Kα-KO MEFs): little signalling impact | differentially phosphorylated peptides/sites (15 min treatment): 27 | differentially phosphorylated peptides/sites (4 h treatment): 50

— patent US20250263404A1, “AMINOPYRIDINES AS ACTIVATORS OF PI3 KINASE” (UCL Business Ltd, priority 2021, published 2025)
